Measurements: US9448237B2, “Modified tyrosine amino acids, peptides containing them, and their use for detecting hydrolase enzyme activity” (PAMGENE B.V., priority 2011, dated 2016)

Legend:
phosphatase PTP1B = phosphatase PTP1B (Homo sapiens, UniProt P18031); conditions: spotted with 1 mM peptide solution; one hour incubation with PTP1B in Tris-buffer containing DTT; FIG. 7
Experimental: After one hour incubation with phosphatase PTP1B in a Tris-buffer containing DTT, the microarray was washed and treated with a solution of PY20 antibody. […] The left image: not treated with PTP1B. The right image: treated with PTP1B.

phosphatase = conditions: FIG. 5
Experimental: A Tris buffer (25 μL, 50 mM, pH 7.4, modified with 0.5 mM DTT) was used to dissolve the appropriate phosphatase (20-100 ng) together with BSA (0.25 μL, 10 mg/mL), anti-nitrotyrosine antibody (0.5 μL, 0.5 mg/mL in PBS pH 7.4), FITC-goat-anti-mouse antibody (0.5 μL, 4 μg/mL). The resulting mixture was added to Pamchip® microarrays and the fluorescence imaged in real time using a Pamstation® PS12 instrument. The images were analyzed using the Bionavigator software package (Pamgene International BV, 's-Hertogenbosch, The Netherlands).
To the mixture described in Example 14, a 1 μL amount of sodium vanadate solutions with appropriate concentration was added.

Sequence of phosphatase PTP1B (P18031 whole entry): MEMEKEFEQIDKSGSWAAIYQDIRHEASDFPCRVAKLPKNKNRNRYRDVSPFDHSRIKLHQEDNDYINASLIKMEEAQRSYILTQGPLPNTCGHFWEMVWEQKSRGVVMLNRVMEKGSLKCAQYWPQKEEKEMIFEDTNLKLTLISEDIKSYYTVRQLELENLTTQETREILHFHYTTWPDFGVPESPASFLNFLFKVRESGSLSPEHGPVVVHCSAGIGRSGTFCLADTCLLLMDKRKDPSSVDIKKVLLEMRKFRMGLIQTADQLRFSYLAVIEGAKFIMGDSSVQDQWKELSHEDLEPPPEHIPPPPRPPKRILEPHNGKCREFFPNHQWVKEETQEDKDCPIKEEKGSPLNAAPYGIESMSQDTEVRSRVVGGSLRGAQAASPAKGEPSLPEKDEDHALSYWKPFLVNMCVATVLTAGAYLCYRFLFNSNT

Row | Substance | recognition as substrate and dephosphorylation by phosphatase (phosphatase PTP1B) | inhibition of the phosphatase enzyme activity (phosphatase)
1 | H-CDADE-(3-Br-pY)-LIPQQG-NH2 [3-bromo-phosphotyrosine peptide] | recognized by the phosphatase and dephosphorylated equally well | –
2 | sodium ortho-vanadate | – | concentration dependent inhibition
